# Assay results reported in article PMC10855908 (International Journal of Molecular Sciences, 2024).
# No end group written: not given here.
# Legend:
# C. coli ATCC33559 = details: ATCC33559, 24 h, 200 μg/mL
# [1] = tested on: Campylobacter coli ATCC 33559; details: ATCC 33559, 24 h
# C. perfringens MLG4206 [2] = format: cell-based, Clostridium perfringens
# C. perfringens MLG5806 [3] = format: cell-based, Clostridium perfringens
# C. perfringens MLG0618 [4] = format: cell-based, Clostridium perfringens
# C. perfringens MLG1108 [5] = format: cell-based, Clostridium perfringens
# C. perfringens MLG7309 [6] = format: cell-based, Clostridium perfringens
# C. perfringens MLG4201 [7] = format: cell-based, Clostridium perfringens
# C. perfringens MLG4201 [8] = format: cell-based, Clostridium perfringens; remark: listed apart in the source
# C. perfringens MLG1619 [9] = format: cell-based, Clostridium perfringens
# C. perfringens MLG1108 [10] = format: cell-based, Clostridium perfringens; remark: listed apart in the source
# C. perfringens MLG7307 [11] = format: cell-based, Clostridium perfringens
# C. perfringens MLG3406 [12] = format: cell-based, Clostridium perfringens
# C. perfringens MLG6907 [13] = format: cell-based, Clostridium perfringens
# C. perfringens MLG7307 [14] = format: cell-based, Clostridium perfringens; remark: listed apart in the source
# C. perfringens MLG3111 [15] = format: cell-based, Clostridium perfringens
# C. perfringens MLG5719 [16] = format: cell-based, Clostridium perfringens
# C. perfringens MLG1619 [17] = format: cell-based, Clostridium perfringens; remark: listed apart in the source
# C. perfringens MLG7814 [18] = format: cell-based, Clostridium perfringens
# C. perfringens MLG0418 [19] = format: cell-based, Clostridium perfringens
# C. perfringens MLG1819 [20] = format: cell-based, Clostridium perfringens
# C. perfringens MLG0712 [21] = format: cell-based, Clostridium perfringens
# C. perfringens MLG6907 [22] = format: cell-based, Clostridium perfringens; remark: listed apart in the source
# C. perfringens MLG7009 [23] = format: cell-based, Clostridium perfringens
# C. perfringens MLG2203 [24] = format: cell-based, Clostridium perfringens
# C. perfringens MLG2314 [25] = format: cell-based, Clostridium perfringens
# C. perfringens MLG2919 [26] = format: cell-based, Clostridium perfringens
# C. perfringens MLG7309 [27] = format: cell-based, Clostridium perfringens; remark: listed apart in the source
# C. perfringens MLG1819 [28] = format: cell-based, Clostridium perfringens; remark: listed apart in the source
# C. perfringens MLG5806 [29] = format: cell-based, Clostridium perfringens; remark: listed apart in the source
# C. perfringens MLG2203 [30] = format: cell-based, Clostridium perfringens; remark: listed apart in the source
# C. perfringens MLG5719 [31] = format: cell-based, Clostridium perfringens; remark: listed apart in the source
# C. perfringens MLG2314 [32] = format: cell-based, Clostridium perfringens; remark: listed apart in the source
# C. perfringens MLG0418 [33] = format: cell-based, Clostridium perfringens; remark: listed apart in the source
# C. perfringens MLG2919 [34] = format: cell-based, Clostridium perfringens; remark: listed apart in the source
# C. perfringens MLG3406 [35] = format: cell-based, Clostridium perfringens; remark: listed apart in the source
# C. perfringens MLG7009 [36] = format: cell-based, Clostridium perfringens; remark: listed apart in the source
# C. perfringens MLG3111 [37] = format: cell-based, Clostridium perfringens; remark: listed apart in the source
# C. perfringens MLG7814 [38] = format: cell-based, Clostridium perfringens; remark: listed apart in the source
# C. perfringens MLG4206 [39] = format: cell-based, Clostridium perfringens; remark: listed apart in the source
# C. perfringens MLG0712 [40] = format: cell-based, Clostridium perfringens; remark: listed apart in the source
# C. perfringens MLG0618 [41] = format: cell-based, Clostridium perfringens; remark: listed apart in the source
substance,measurement,setting,value
MGAIAKLVAKFGWPIVKKYYKQIMQFIGEGWAINKIIEWIKKHI [Enterocin L50A],Inhibition halos,C. coli ATCC33559,10 mm
same,MIC,[1],25 µg/mL
"Nisin (ITSISLCTPGCKTGALMGCNMKTATCHCSIHVSK; thioether (positions not given here); not fully specified (some residues, bridges); UniProt P13068 24-57, looked up)",Inhibition halos,C. perfringens MLG4206 [2],25 mm
same,Inhibition halos,C. perfringens MLG5806 [3],19 mm
same,Inhibition halos,C. perfringens MLG0618 [4],14 mm
same,MIC,C. perfringens MLG1108 [5],0.78 µg/mL
same,Inhibition halos,C. perfringens MLG7309 [6],17 mm
same,MIC,C. perfringens MLG4201 [7],0.78 µg/mL
same,Inhibition halos,C. perfringens MLG4201 [8],18 mm
same,Inhibition halos,C. perfringens MLG1619 [9],20 mm
same,Inhibition halos,C. perfringens MLG1108 [10],16 mm
same,Inhibition halos,C. perfringens MLG7307 [11],20 mm
same,MIC,C. perfringens MLG3406 [12],3.12 µg/mL
same,Inhibition halos,C. perfringens MLG6907 [13],23 mm
same,MIC,C. perfringens MLG7307 [14],0.78 µg/mL
same,Inhibition halos,C. perfringens MLG3111 [15],27 mm
same,MIC,C. perfringens MLG5719 [16],1.56 µg/mL
same,MIC,C. perfringens MLG1619 [17],0.19 µg/mL
same,MIC,C. perfringens MLG7814 [18],3.12 µg/mL
same,Inhibition halos,C. perfringens MLG0418 [19],23 mm
same,Inhibition halos,C. perfringens MLG1819 [20],19 mm
same,MIC,C. perfringens MLG0712 [21],0.39 µg/mL
same,MIC,C. perfringens MLG6907 [22],1.56 µg/mL
same,Inhibition halos,C. perfringens MLG7009 [23],20 mm
same,MIC,C. perfringens MLG2203 [24],<0.09 µg/mL
same,MIC,C. perfringens MLG2314 [25],1.56 µg/mL
same,MIC,C. perfringens MLG2919 [26],1.56 µg/mL
same,MIC,C. perfringens MLG7309 [27],0.78 µg/mL
same,MIC,C. perfringens MLG1819 [28],0.39 µg/mL
same,MIC,C. perfringens MLG5806 [29],1.56 µg/mL
same,Inhibition halos,C. perfringens MLG2203 [30],24 mm
same,Inhibition halos,C. perfringens MLG5719 [31],19 mm
same,Inhibition halos,C. perfringens MLG2314 [32],20 mm
same,MIC,C. perfringens MLG0418 [33],1.56 µg/mL
same,Inhibition halos,C. perfringens MLG2919 [34],21 mm
same,Inhibition halos,C. perfringens MLG3406 [35],19 mm
same,MIC,C. perfringens MLG7009 [36],1.56 µg/mL
same,MIC,C. perfringens MLG3111 [37],0.39 µg/mL
same,Inhibition halos,C. perfringens MLG7814 [38],23 mm
same,MIC,C. perfringens MLG4206 [39],1.56 µg/mL
same,Inhibition halos,C. perfringens MLG0712 [40],17 mm
same,MIC,C. perfringens MLG0618 [41],0.39 µg/mL
